In paper PMC3436960 (Biochemistry, 2012):

How the values were obtained:
[1] = molecular target: S. typhimurium OMP synthase (orotate phosphoribosyltransferase) (Salmonella enterica, UniProt P08870, H105A); test: biochemical
[2] = molecular target: S. typhimurium OMP synthase (orotate phosphoribosyltransferase) (Salmonella enterica, UniProt P08870, E107A); test: biochemical
[3] = molecular target: T1, S. typhimurium OMP synthase (orotate phosphoribosyltransferase) (Salmonella enterica, UniProt P08870); test: equilibrium binding by centrifugal filtration
T1 sequence (P08870 2-213): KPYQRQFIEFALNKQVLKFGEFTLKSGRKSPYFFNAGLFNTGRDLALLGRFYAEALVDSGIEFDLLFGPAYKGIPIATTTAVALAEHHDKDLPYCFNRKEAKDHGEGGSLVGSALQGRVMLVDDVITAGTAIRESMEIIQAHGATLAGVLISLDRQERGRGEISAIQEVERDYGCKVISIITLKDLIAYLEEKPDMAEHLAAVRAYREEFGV

[4] = molecular target: S. typhimurium OMP synthase (orotate phosphoribosyltransferase) (Salmonella enterica, UniProt P08870, DEL102-102/DEL106-106); test: biochemical
[5] = molecular target: S. typhimurium OMP synthase (orotate phosphoribosyltransferase) (Salmonella enterica, UniProt P08870, K103A); test: biochemical
[6] = molecular target: S. typhimurium OMP synthase (orotate phosphoribosyltransferase) (Salmonella enterica, UniProt P08870, E101A); test: biochemical
[7] = molecular target: S. typhimurium OMP synthase (orotate phosphoribosyltransferase) (Salmonella enterica, UniProt P08870, D104A); test: biochemical
purified protein [8] = substrate: O=P(O)(O)OC[C@H]1O[C@H](OP(=O)(O)OP(=O)(O)O)[C@H](O)[C@@H]1O; test: purified protein; format: biochemical, Salmonella enterica; details: 300 μM orotate, 6 mM MgCl2, 75 mM Tris-Cl, pH 8.0, 30°C
purified protein [9] = substrate: O=C(O)c1cc(=O)[nH]c(=O)[nH]1; test: purified protein; format: biochemical, Salmonella enterica; details: 1 mM PRPP, 6 mM MgCl2, 75 mM Tris-Cl, pH 8.0, 30°C
purified protein [10] = substrate: O=C(O)c1cc(=O)[nH]c(=O)n1[C@@H]1O[C@H](COP(=O)(O)O)[C@@H](O)[C@H]1O; test: purified protein; details: 2 mM PPi, 3 mM MgCl2, 80 mM Tris-Cl, pH 8.0, 30°C
purified protein [11] = substrate: O=P(O)(O)OP(=O)(O)O; test: purified protein; details: 100 μM OMP, 3 mM MgCl2, 80 mM Tris-Cl, pH 8.0, 30°C

`O=C(O)c1cc(=O)[nH]c(=O)n1[C@@H]1O[C@H](COP(=O)(O)O)[C@@H](O)[C@H]1O` [OMP] was tested, and the Kd [1] was 4 ± 0.3 µM, the Kd [2] was 6.5 ± 0.8 µM and the Kd [3] was 3.1 ± 0.1 µM. The Kd [4] was 2 ± 0.1 µM, the Kd [5] was 3 ± 0.1 µM and the Kd [6] was 12 ± 2 µM.

With `O=C(O)c1cc(=O)[nH]c(=O)[nH]1` [Orotate] the Kd [3] was 280 ± 30 µM.

Work on `O=P(O)(O)OC[C@H]1O[C@H](OP(=O)(O)OP(=O)(O)O)[C@H](O)[C@@H]1O` [PRPP] yielded a Kd [1] of 92 ± 11 µM, a Kd [7] of 13 ± 0.7 µM and a Kd [2] of 7.1 ± 0.5 µM. The Kd [3] was 33 ± 0.5 µM, the Kd [5] was 125 ± 11 µM and the Kd [6] was 36 ± 3 µM.

B1: S. typhimurium OMP synthase (orotate phosphoribosyltransferase) (Salmonella enterica subsp. enterica serovar Typhimurium str. LT2) (protein)
chain: KPYQRQFIEFALNKQVLKFGEFTLKSGRKSPYFFNAGLFNTGRDLALLGRFYAEALVDSGIEFDLLFGPAYKGIPIATTTAVALAEHHDKDLPYCFNRKEAKDHGEGGSLVGSALQGRVMLVDDVITAGTAIRESMEIIQAHGATLAGVLISLDRQERGRGEISAIQEVERDYGCKVISIITLKDLIAYLEEKPDMAEHLAAVRAYREEFGV
Molecule B1 has a Km (purified protein [8]) of 18 ± 5 µM, a kcat (purified protein [8]) of 56 ± 2.5 s⁻¹ and a kcat/Km (purified protein [8]) of 3.1e+06 M⁻¹ s⁻¹. It also gave a Km (purified protein [9]) of 19 ± 3 µM, a kcat (purified protein [9]) of 56 ± 2.5 s⁻¹ and a kcat/Km (purified protein [9]) of 3e+06 M⁻¹ s⁻¹. The Km (purified protein [10]) was 3 ± 0.3 µM, the Km (purified protein [11]) was 31 ± 3 µM and the kcat (purified protein [11]) was 18 ± 0.3 s⁻¹. The kcat/Km (purified protein [11]) was 580000 M⁻¹ s⁻¹.
